Measurements taken from patent US10676436B2, “NLRX1 ligands” (Landos Biopharma, Inc., priority 2018, dated 2020).

Key:
CD4+ T cells = experiment: Immunological screening in vitro in CD4+ splenocytes, flow cytometry; assay type: cell-based, C57BL/6 mice; details: for proportion of IFNγ producing (IFNγ+) CD4+ T cells / proportion of TNFα producing (TNFα+) CD4+ T cells: wild-type cells, 48 h, PMA and ionomycin; for size and dose dependence of the effect on TNFα producing and IFNγ producing cells: within the range tested
Text: Spleens were excised from C57BL/6 mice. Spleens were crushed between the frosted ends of microscope slides and filtered to provide a cellular suspension. Red blood cells were lysed through hypotonic lysis. Remaining cells were washed and filtered. CD4+ T cells were enriched within the suspension using magnetic sorting based negative selection. Cells were collected and plated within 96 well plates coated with anti-CD3 and cultured in the presence of NX-13, NX-37, NX-43, NX-44, or NX-50 at 0, 0.1, 1 or 10 micromolar; NX-53, NX-54, NX-55, or NX-56 at 0, 0.1, or 1 micromolar; or NX-45 at 10, 50 or 100 nanomolar for 48 h. During the last 6 h of culture, cells were stimulated with phorbol 12-myristate-13-acetate (PMA) and ionomycin.
Cells were collected from 96 well plates and stained with a cocktail of antibodies for immunophenotyping by flow cytometry. Culture supernatant was collected and assayed for cytokine concentrations by cytometric bead array. Data was captured on a BD FACS Celesta and analyzed using FacsDiva.

[1] = target: T1, mutated NLRX1 protein (D677A, F680A, F681A, E684A) (Homo sapiens, UniProt Q86UT6, D677A/E684A/F680A/F681A); experiment: Surface plasmon resonance binding to NLRX1-Mutant
T1 construct: made in house; host or cells: Pichia pastoris (by 'similar methods')
Description: (§1) NLRX1 production and purification. Human NLRX1 (www.uniprot.org; UniProtKB—Q86UT6 (NLRX1 HUMAN)) was cloned into E. coli, amplified and transfected in Pichia pastoris. P. pastoris was plated onto adenine selective media. Stable transfected colonies were selected and grown within YPD broth at 30° C. for 24 hours, 240 RPM shaking. Starter culture was used to inoculate base media (1% yeast extract, 2% peptone, 1% sorbitol, 2% yeast nitrogen base) containing biotin and buffered with potassium phosphate. Inoculated base media was incubated for 48 hours at 30° C., 240 RPM. P. pastoris was then pelleted by centrifugation and resuspended in expression media (1% sorbitol, 2% yeast nitrogen base) containing biotin and buffered with potassium phosphate. Culture was induced daily for protein production through addition of methanol and incubated for a total of 4 days at 28° C., 240 RPM. After incubation, cells were pelleted by centrifugation and lysed by sonication. Recombinant NLRX1 protein was purified by fast protein liquid chromatography (AktaPrime) using immobilized metal affinity chromatography. Fractions of protein were eluted in 1 mL aliquots and evaluated for NLRX1 content. A mutated NLRX1 protein was generated using similar methods to disrupt binding within the predicted binding site through altering four residues to alanine (D677A, F680A, F681A, and E684A).
A Biacore T200 was used to evaluate binding to the NLRX1 protein. NLRX1-WT and NLRX1-Mutant were used as proteins to immobilize onto the CM5 sensor chip. NLRX1-WT was diluted in 10 mM sodium acetate buffer at pH 4.0 and immobilized onto the flow cell to a level of ˜3700 RU, using standard amine coupling chemistry. NLRX1-Mutant was diluted in 10 mM sodium acetate buffer at pH 4.0 and immobilized onto the flow cell to a level of ˜3100 RU, using standard amine coupling chemistry. 20 mM MOPS, 150 mM NaCl, 5 mM sodium acetate, 1 mM EDTA, 0.05% Tween-20, pH 8.0 buffer (Running buffer) was used as the immobilization running buffer. Based on the immobilized response values, theoretical Rmax values were calculated. […]

CT26 carcinoma cells = experiment: CT26 injected solid tumor model; assay type: in vivo, BALB/c mice
Description: (§2) Adult BALB/c mice were injected with 5×10^6 CT26 carcinoma cells subcutaneously in the hind flank. Mice were treated daily with NX-43 at 40 mg/kg via gavage beginning on day 9. Mice were weighed daily, and tumor diameter was measured every 3 days up to day 21. Tumors were collected at weighed at necropsy. A second mouse model was used. APC^min/+ mice were administered DSS in drinking water beginning at 5 weeks of age. Mice were challenged with DSS for a total of 5 days prior to return of standard drinking water. After DSS, mice were treated with NX-43 (40 mg/kg) by oral gavage for four weeks. After four weeks, colons were excised and washed. Number of polyps were counted, and colon weights were obtained.
Total RNA from tumors and lymph nodes can be generated using the Qiagen RNeasy mini kit. cDNA can be generated using the BioRad iScript cDNA synthesis kit. Standard curves can be generated by serial dilution of purified product from a standard PCR reaction with Taq DNA polymerase followed by purification using the Qiagen MinElute PCR purification kit. Expression levels can be obtained from quantitative real-time PCR with SybrGreen supermix on a BioRad CFX96 Thermal cycler followed by normalization to expression of β-actin. Gene expression can be measured for genes marking immune activation such as inflammatory cytokines or surface receptors, immune suppression such as CTLA-4, PD-1, or ARG-1, and tumor growth and metastasis.
H&E stained tumor and lymph node sections can be prepared from tissue collected into 10% buffered formalin and embedded in paraffin. Slides can be examined by a board-certified veterinary pathologist via an Olympus microscope and images will be collected with Image-Pro software. Samples can be scored and evaluated for presence of tumor infiltrating leukocytes, areas of necrosis and proportion of proliferating tumor cells.
Tumors and lymph nodes can be collected into RPMI/FBS buffer containing collagenase (300 U/mL) and DNase (50 U/mL) for digestion. Tissues can be digested for 60 minutes under stirring at 37° C. […]

Human NLRX1 (NLRX1-WT) = target: T2, Human NLRX1 (NLRX1-WT) (Homo sapiens, UniProt Q86UT6); experiment: Surface plasmon resonance binding to NLRX1-WT
T2 construct: made in house; host or cells: Pichia pastoris
Description: as §1
A Biacore T200 was used to evaluate binding to the NLRX1 protein. NLRX1-WT and NLRX1-Mutant were used as proteins to immobilize onto the CM5 sensor chip. NLRX1-WT was diluted in 10 mM sodium acetate buffer at pH 4.0 and immobilized onto the flow cell to a level of ˜3700 RU, using standard amine coupling chemistry. NLRX1-Mutant was diluted in 10 mM sodium acetate buffer at pH 4.0 and immobilized onto the flow cell to a level of ˜3100 RU, using standard amine coupling chemistry. 20 mM MOPS, 150 mM NaCl, 5 mM sodium acetate, 1 mM EDTA, 0.05% Tween-20, pH 8.0 buffer (Running buffer) was used as the immobilization running buffer. Based on the immobilized response values, theoretical Rmax values were calculated. The Rmax values assume 1:1 interaction mechanism. Overnight kinetics were performed for all analytes binding to the immobilized proteins. The kinetics experiments were performed in the μL/min. presence of running buffer+1% DMSO. The flow rate of all solutions was maintained at 50 Analyte concentrations were 0 μM, 2.5 μM, 5 μM 10 μM 20 μM and 40 μM.

[2] = system: APC^min/+ model of colorectal cancer; experiment: APCmin/+ model of colorectal cancer; assay type: in vivo, mice; details: 40 mg/kg oral, four weeks
Description: as §2

[3] = target: T3, NLRX1 (C terminus, pdb: 3UN9) (Homo sapiens, UniProt Q86UT6); details: low affinity NLRX1 ligand, published value; cited from earlier work
T3 construct: the published structure for the C terminus of NLRX1 (pdb: 3UN9)

[4] = tested at 10, 50 and 100 nanomolar

T1 sequence (Q86UT6 87-975 D677A/F680A/F681A/E684A): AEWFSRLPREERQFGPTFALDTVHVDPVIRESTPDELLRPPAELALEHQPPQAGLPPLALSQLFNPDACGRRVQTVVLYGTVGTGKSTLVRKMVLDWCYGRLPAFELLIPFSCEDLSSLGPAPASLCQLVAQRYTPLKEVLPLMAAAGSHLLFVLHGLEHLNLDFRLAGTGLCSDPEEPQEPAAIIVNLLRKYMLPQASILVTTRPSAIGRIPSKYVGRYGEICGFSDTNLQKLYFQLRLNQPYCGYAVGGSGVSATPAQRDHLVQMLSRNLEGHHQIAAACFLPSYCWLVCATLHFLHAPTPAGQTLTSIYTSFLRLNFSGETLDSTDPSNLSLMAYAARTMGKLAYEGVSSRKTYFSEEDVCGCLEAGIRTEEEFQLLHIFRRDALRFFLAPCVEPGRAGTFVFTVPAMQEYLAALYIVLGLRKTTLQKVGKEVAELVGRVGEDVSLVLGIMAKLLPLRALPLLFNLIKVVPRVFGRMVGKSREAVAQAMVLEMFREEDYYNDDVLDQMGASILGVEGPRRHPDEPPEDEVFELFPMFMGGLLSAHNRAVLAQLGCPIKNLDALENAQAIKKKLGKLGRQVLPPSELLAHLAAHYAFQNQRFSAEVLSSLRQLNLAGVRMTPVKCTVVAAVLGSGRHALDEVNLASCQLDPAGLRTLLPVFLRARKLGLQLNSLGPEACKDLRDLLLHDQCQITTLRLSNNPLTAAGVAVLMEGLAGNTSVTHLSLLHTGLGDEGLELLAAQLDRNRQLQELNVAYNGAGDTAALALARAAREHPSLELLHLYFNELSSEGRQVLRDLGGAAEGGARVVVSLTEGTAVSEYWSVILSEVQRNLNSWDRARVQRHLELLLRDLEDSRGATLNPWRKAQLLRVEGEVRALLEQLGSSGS
T2 sequence (Q86UT6 87-975): as the sequence (Q86UT6 87-975 D677A/F680A/F681A/E684A) above, with A591D, A594F, A595F, A598E counted along it
T3 sequence (Q86UT6 629-975 limits assumed): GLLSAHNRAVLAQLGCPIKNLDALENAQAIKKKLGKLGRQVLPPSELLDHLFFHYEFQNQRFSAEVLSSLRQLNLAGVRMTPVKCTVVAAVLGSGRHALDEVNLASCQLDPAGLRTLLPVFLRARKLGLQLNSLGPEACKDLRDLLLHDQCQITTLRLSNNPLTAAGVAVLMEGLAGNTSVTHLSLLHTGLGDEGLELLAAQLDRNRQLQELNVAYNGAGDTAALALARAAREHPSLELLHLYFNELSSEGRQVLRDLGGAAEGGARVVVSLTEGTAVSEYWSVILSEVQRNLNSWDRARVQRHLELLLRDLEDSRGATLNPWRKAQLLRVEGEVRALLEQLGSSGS

Structure (SMILES) | proportion of IFNγ producing (IFNγ+) CD4+ T cells (CD4+ T cells) | function at NLRX1 concluded from the cytokine results (CD4+ T cells) | proportion of TNFα producing (TNFα+) CD4+ T cells (CD4+ T cells) | further results
Cc1cccc(Oc2cc(Oc3cccc(C)n3)cc(Oc3ccccc3O)c2)n1 [NX-56, 2,2′-(5-(phen-6-ol)oxy-1,3-phenylene)bis(oxy)bis(6-methylpyridine)] | weakly increased |  |  | 
Cc1cccc(Oc2cc(Oc3ccccc3)cc(Oc3cccc(C)n3)c2)n1 [NX-53, 2,2′-(5-phenoxy-1,3-phenylene)bis(oxy)bis(6-methylpyridine)] | weakly increased |  |  | 
Cc1cccnc1Oc1cc(Oc2ncccc2C)cc(Oc2ncccc2C)c1 [NX-50, 1,3,5-tris (3-methylpyridin-2-yloxy)benzene] | decreased | activators of NLRX1 | decreased | 
Cc1cccc(Oc2cc(Oc3ccccn3)cc(Oc3cccc(C)n3)c2)n1 [NX-54, 2,2′-(5-(pyridin-2-yloxy)-1,3-phenylene)bis(oxy)bis(6-methylpyridine)] | minimal effects at high concentrations |  |  | 
Cc1cccnc1Oc1cc(Oc2ccccc2)cc(Oc2ncccc2C)c1 [NX-43, 2,2′-(5-phenoxy-1,3-phenylene)bis(oxy)bis(3-methylpyridine)] | increased | specific inhibitors of NLRX1 | increased | binding to the mutated NLRX1 protein [1]: Loss of binding; time after initiation of treatment at which reduction in tumor diameter was observed (CT26 carcinoma cells; 40 mg/kg daily via gavage): less than 10 days; tumor size relative to untreated controls (CT26 carcinoma cells; 40 mg/kg daily via gavage beginning on day 9): reduce; reduction of overall tumor mass (CT26 carcinoma cells; after 12 days of treatment, 40 mg/kg): over 70%; binding to NLRX1 by surface plasmon resonance (in words) (Human NLRX1 (NLRX1-WT)): bind to NLRX1; change in IL-10 producing cells (CD4+ T cells): Neither small molecule elicited a change; size and dose dependence of the effect on TNFα producing and IFNγ producing cells (CD4+ T cells): greater effect than NX-37; overall tumor burden (as evidenced by the colon weight) [2]: reduced; number of colonic polyps ([2]; post-inflammation treatment): reduced
Cc1cc(O)cnc1Oc1cc(Oc2ccccc2)cc(Oc2ncc(O)cc2C)c1 [NX-44, 6,6′-(5-phenoxy-1,3-phenylene)bis(oxy)bis(5-methyl-3-pyridinol)] | increased | specific inhibitors of NLRX1 | increased | 
Cc1cc(N)cnc1Oc1cc(Oc2ncc(N)cc2C)cc(Oc2ncc(N)cc2C)c1 [NX-45, 6,6′,6″-(benzene-1,3,5-triyltris(oxy))tris(5-methylpyridin-3-amine)] | reduces | activators of NLRX1 | reduces | concentrations at which the significant reduction in IFNγ+ cells occurs (CD4+ T cells; [4]): ≥ 50 nM; concentrations at which the significant reduction in TNFα+ cells occurs (CD4+ T cells; [4]): ≥ 10 nM
CCCC\C=C/C=C/C=C\CCCCCCCC(=O)O [punicic acid] |  |  |  | published binding affinity to NLRX1 [3]: -6.2 kcal/mol
Cc1cccc(Oc2cc(Oc3cccc(C)n3)cc(Oc3nc(C)cc(C)n3)c2)n1 [NX-37, 2-(3,5-bis(6-methylpyridin-2-yloxy)phenoxy)-4,6-dimethylpyrimidine] | increased | specific inhibitors of NLRX1 | increased | binding to the mutated NLRX1 protein [1]: Loss of binding; binding to NLRX1 by surface plasmon resonance (in words) (Human NLRX1 (NLRX1-WT)): bind to NLRX1; change in IL-10 producing cells (CD4+ T cells): Neither small molecule elicited a change; size and dose dependence of the effect on TNFα producing and IFNγ producing cells (CD4+ T cells): dose-dependent effects
Cc1cccc(Oc2cc(Oc3cccc(C)n3)cc(Oc3ccccc3C)c2)n1 [NX-55, 2,2′-(5-(6-methylphenoxy)-1,3-phenylene)bis(oxy)bis(6-methylpyridine)] | only a small decrease |  |  | 
